Measured values taken from publication PMC7344389, “Discovery of Anti-Amoebic Inhibitors from Screening the MMV Pandemic Response Box on Balamuthia mandrillaris, Naegleria fowleri, and Acanthamoeba castellanii” (Pathogens, 2020).
Where two headings read alike, the source gives them in different places.

How the values were obtained:
[1] = tested on: A549 human lung carcinoma cells; test: MTS cytotoxicity counter-screen of reconfirmed hits; type: cell-based
Description: Cytotoxicity of the reconfirmed hits was determined by using the CellTiter 96® AQueous One Solution Cell Proliferation Assay (Promega, Madison, WI) on A549 human lung carcinoma cells. A549 cells were seeded at a concentration of 1.6 × 10^4 cells/mL in 96-well tissue culture plates (Corning, NY, USA), in the presence of serially diluted active hits against B. mandrillaris, N. fowleri, or A. castellanii. Positive control wells contained cells and media; negative control wells contained 0.1% DMSO. Cells were grown in F12K medium supplemented with 10% FBS and 1% gentamycin (all supplied from Fisher Scientific, Atlanta, GA, USA). The inhibitor concentration started at 10 µM and was diluted in doubling dilutions to assess cytotoxicity in comparison to the respective free-living amoeba. Total volume of each well was 100 µL and plates were incubated at 37 °C, 5% CO2 for 72 h. Next, 4 h before the time-point, 20 µL of MTS (Promega, Madison, WI, USA) was added to each well. Inhibition of A549 growth was assessed at the 72 h time-point measuring the optical density (OD) values at 490 nm using a SpectraMax I3X plate reader (Molecular Devices, Sunnyvale, CA, USA). Curve fitting using non-linear regression was carried out using the average of replicates and the Levenberg–Marquardt algorithm, using DMSO as the normalization control, as defined in CDD Vault (Burlingame, CA, USA).

[2] = tested on: Naegleria fowleri trophozoites; test: CellTiter-Glo 2.0 trophocidal assay, N. fowleri; type: cell-based
Description: Pathogenic Naegleria fowleri (ATCC 30215), a clinical isolate obtained from a child in Adelaide, Australia, that died of PAM in 1969 was previously purchased from the American Type Culture Collection (ATCC). Trophozoites were routinely grown axenically at 34 °C in Nelson’s complete medium (NCM) in non-vented 75 cm^2 tissue culture flasks (Olympus, El Cajon, CA, USA), until the cells were 80–90% confluent. For sub-culturing, cells were placed on ice to detach the cells from the culture flasks. The cells were collected by centrifugation at 4000 rpm at 4 °C. Complete NCM media is produced by the addition of 10% FBS and 125 μg of penicillin/streptomycin antibiotics.
The trophocidal activity of compounds was assessed using the CellTiter-Glo 2.0 luminescent viability assay (Promega, Madison, WI, USA), as previously described. Trophozoites were routinely cultured as described above and only logarithmic trophozoites were used. In brief, B. mandrillaris, N. fowleri, or A. castellanii trophozoites cultured in their corresponding media were seeded at 16,000, 3000, or 1440 cells/well into white 96-well plates (Costar 3370), respectively. Initially all compounds were assessed in a single-point drug screen at 10 and 1 μM, as previously described. […] Control wells were supplemented with 0.1% (10 μM screening plate) or 0.01% (1 μM screening plate) DMSO, as the negative controls, or 12.5 μM of chlorhexidine, as the positive control. Following the single-point assays at 10 and 1 µM, we prioritized compounds for progression to IC50 determinations. […] We used this process to reduce the number of potential false positives. Drugs were cherry-picked, dissolved in the media specific to each parasite, and assessed in twofold serial dilutions from the highest concentration of 10 μM. All assays were incubated at each of the parasites’ representative growth temperatures, described above, for 72 h. At the 72 h time point, 25 μL of CellTiter-Glo 2.0 reagent was added to all wells of the 96-well plates using the Biomek NX^P automated workstation. The plates were protected from light and contents were mixed using an orbital shaker at 300 rpm at room temperature for 2 min to induce cell lysis. After shaking, the plates were equilibrated at room temperature for 10 min to stabilize the luminescent signal. The adenosine triphosphate (ATP) luminescent signal (relative light units; RLUs) was measured at 490 nm with a SpectraMax I3X plate reader (Molecular Devices, Sunnyvale, CA, USA). Drug inhibitory concentration (IC50) curves were generated using total ATP RLUs, where controls were calculated as the average of replicates using the Levenberg–Marquardt algorithm, using DMSO as the normalization control, as defined in Collaborative Drug Discovery Inc. (CDD) Vault (Burlingame, CA, USA). Values reported are from a minimum of two biological replicates with standard deviations.

[3] = Homo sapiens, A549, MTS assay, 72 h, doubling dilutions from 10 µM, read-out: A549 Mean IC50
[4] = Naegleria fowleri, 72 h, CTG method, 72 h, duplicate twofold serial dilutions from 10 µM, mean ± SD; read-out: N. fowleri Mean IC50 (µM) ± SD
[5] = CTG method, 72 h, duplicate twofold serial dilutions from 10 µM, mean ± SD; read-out: N. fowleri Mean IC50 (µM) ± SD
[6] = MTS assay, 72 h, doubling dilutions from 10 µM, read-out: A549 Mean IC50

Structure (SMILES)	IC50 [1, 3] [µM]	IC50 [2, 4] [µM]	Selectivity Index (A549 IC50/N. fowleri IC50) ([2]; SI = (IC50 A549)/(IC50 Amoeba))	IC50 [2, 5] [µM]	IC50 [1, 6] [µM]	also measured
N#C/C(=C1/SC[C@@H](c2ccc(Cl)cc2Cl)S1)n1ccnc1 [Luliconazole]	> 10	0.02 ± 0.01	≥556			Selectivity Index (A549 IC50/N. fowleri IC50) ([2]; SI = (IC50 A549)/(IC50 Amoeba); listed as luliconazole): ≥ 10; potency against N. fowleri, in words ([2]; dose-response, CTG): nanomolar potency
C=C[C@]1(C)C[C@@H](OC(=O)CS[C@@H]2C[C@H]3CC[C@@H](C2)N3C)[C@]2(C)[C@H](C)CC[C@]3(CCC(=O)[C@H]32)[C@@H](C)[C@@H]1O [Retapamulin]	> 10		≥8.97	1.12 ± 0.28		IC50 ([2]; CTG method, 72 h, duplicate twofold serial dilutions from 10 µM, mean ± SD; listed as repatamulin; read-out: N. fowleri Mean IC50 (µM) ± SD): ≤ 10 µM
O=C(Nc1cccc(C2=NCCN2)c1)c1ccc(-c2ccc(C(=O)Nc3cccc(C4=NCCN4)c3)cc2)cc1 [MMV1580853]				4.95 ± 2.55	> 10	
CN1c2ccc(Cl)cc2N(c2ccccc2)C(=O)c2cn(Cc3ccc(CN4CCOCC4)cc3)nc21 [MMV1782222]				5.4	> 10	
C=CCN(C(=O)OCc1ccc([N+](=O)[O-])cc1)C1CCN(CC[C@](C)(CN(C)S(=O)(=O)c2ccccc2)c2ccccc2)CC1 [MMV1782214]				7.9	> 10	
CN(C)[C@@H]1C(O)=C(C(N)=O)C(=O)[C@@]2(O)C(O)=C3C(=O)c4c(O)c(NC(=O)CN5CCCC5)cc(F)c4C[C@H]3C[C@@H]12 [Eravacycline]	> 10	2.75 ± 0.35	≥3.64			
Nc1nc(F)nc2c1ncn2[C@@H]1O[C@H](CO)[C@@H](O)[C@@H]1O [Fludarabine]			<2.83			IC50 ([1]; Homo sapiens, A549, 72 h, read-out: A549 Mean IC50 (µM)): < 0.31 µM; IC50 ([2]; Naegleria fowleri; CTG method, 72 h, duplicate twofold serial dilutions from 10 µM, mean ± SD; read-out: N. fowleri Mean IC50 (µM) ± SD): 0.11 ± 0.03 µM; potency against N. fowleri, in words ([2]; dose-response, CTG): nanomolar potency
C[C@H](c1cccc2ccccc12)N(C)Cc1ccccc1 [MMV1782221]					> 10	
Nc1nc(Nc2ccc3nc(-c4ccc(F)cc4)cc(N)c3c2)cc(-c2ccccc2)n1 [MMV1593541]				5.3 ± 0.6	2.3	
CC[C@@]1(O)C(=O)OCc2c1cc1n(c2=O)Cc2cc3c([N+](=O)[O-])cccc3nc2-1 [Rubitecan]	0.47	2.3 ± 0.2	0.20			
Oc1c(C(Nc2nc3ccccc3s2)c2ccc(OC(F)F)cc2)ccc2cccnc12 (centres unmarked) [MMV019724]				6 ± 0.7	6.2	
COc1ccc2sc3c(c2c1)NC(C)CNC3=O (centres unmarked) [MMV1782115]				9.35 ± 0.35	5.8	
Cn1cncc1[C@@](N)(c1ccc(Cl)cc1)c1ccc2c(c1)c(-c1cccc(Cl)c1)cc(=O)n2C [Tipifarnib]	8		6.50			IC50 ([2]; Naegleria fowleri, 72 h, read-out: N. fowleri Mean IC50 (µM) ± SD): 1.23 ± 0.27 µM
NC[C@H]1OB(O)c2c(OCCCO)cccc21 [Epetraborole]	> 10	2.6 ± 0.3	≥3.85			
Nc1nc(N)c2c(Sc3ccccc3)cccc2n1 [MMV021759]					> 10	
O=c1cc(NCCCN[C@@H]2CCOc3c(Br)cc(Br)cc32)[nH]c2ccsc12 [MMV1578884]	> 10	0.08 ± 0.02	≥128			Selectivity Index (A549 IC50/N. fowleri IC50) ([2]; SI = (IC50 A549)/(IC50 Amoeba); listed as CRS-3123): ≥ 10; potency against N. fowleri, in words ([2]; dose-response, CTG): nanomolar potency
NC(=S)N/N=C/c1ncccc1N [Triapine]	3.5	4 ± 0.1	0.88			
CCOC(=O)Nc1cc(NC(C)CC(C)CN(CC)CC)c2nc(-c3ccccc3)c(-c3ccccc3)nc2n1 (centres unmarked) [MMV1633967]				8.2 ± 1	> 10	
Cc1cc(C2CCCCC2)n(O)c(=O)c1 [Ciclopirox]	> 10	7.5 ± 1.4	≥1.33			
OCCC#Cc1nc(-c2ccc(F)cc2)c(-c2ccncc2)n1CCCc1ccccc1 [RWJ-67657]	> 10	5.35 ± 0.35	≥1.87			
Cc1cccc(C)c1C(=O)Nc1nc(-c2ccccn2)cc2ccccc12 [MMV1581558]					> 10	
